Patent US20230072421A1, “TARGETED RADIOPHARMACEUTICALS FOR THE DIAGNOSIS AND TREATMENT OF PROSTATE CANCER” (Bayer AS, priority 2019, published 2023)

Experiment: Biodistribution study in LNCaP tumor-bearing mice (Th227 counted in organs)
Type: in vivo, SCID mice
Outline: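 SCID mice bearing testosterone pellets and subcutaneous LNCaP flank tumors (~50 mm^2) received a single intravenous dose of the radioactive compound. At set time points, n=3 animals were sacrificed, and organs were removed, weighed and counted for Th227 on a Germanium detector.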

[1] = 0.25 h, 500 kBq/kg, study b2999

O=C([O-])CN1CCN(CC(=O)[O-])CCN(CC(=O)NCC2CCC(C(=O)NC(Cc3ccc4ccccc4c3)C(=O)NCCCCC(NC(=O)NC(CCC(=O)O)C(=O)O)C(=O)O)CC2)CCN(CC(=O)[O-])CC1.[227Th+4] [Example 1-B-227Th, [^227Th]Thorium (3S,10S,14S)-3-[(naphthalen-2-yl)methyl]-1,4,12-trioxo-1-{(1r,4S)-4-[(2-{4,7,10-tris[(carboxy-kappaO)methyl]-1,4,7,10-tetraazacyclododecan-1-yl-kappa^4N^1,N^4,N^7,N^10}acetamido)methyl]cyclohexyl}-2,5,11,13-tetraazahexadecane-10,14,16-tricarboxylate]
Th-227 in Blood [1]: 1.68 % ID Th-227/g organ
Th-227 in Femur and tibia [1]: 1.31 % ID Th-227/g organ
Th-227 in Kidneys [1]: 114.94 % ID Th-227/g organ
Th-227 in Liver [1]: 0.92 % ID Th-227/g organ
Th-227 in Salivary gland [1]: 10.22 % ID Th-227/g organ
Th-227 in Spleen [1]: 6.51 % ID Th-227/g organ
Th-227 in Tumor [1]: 8.41 % ID Th-227/g organ
Th-227 in prostate [1]: 8.53 % ID Th-227/g organ
Th-227 in Blood (0.25 h, 1500 kBq/kg): 6.68% ID Th-227/g organ
Th-227 in Liver (0.25 h, 1500 kBq/kg): 2.01% ID Th-227/g organ
Th-227 in Spleen (0.25 h, 1500 kBq/kg): 11.41% ID Th-227/g organ
Th-227 in Tumor (0.25 h, 1500 kBq/kg): 6.89% ID Th-227/g organ
Th-227 in bone (0.25 h, 1500 kBq/kg): 2.42% ID Th-227/g organ
Th-227 in brain (0.25 h, 1500 kBq/kg): 0.27% ID Th-227/g organ
Th-227 in kidney (0.25 h, 1500 kBq/kg): 36.39% ID Th-227/g organ
Th-227 in large intestine (0.25 h, 1500 kBq/kg): 1.08% ID Th-227/g organ
Th-227 in lung (0.25 h, 1500 kBq/kg): 4.42% ID Th-227/g organ
Th-227 in muscle (0.25 h, 1500 kBq/kg): 1.06% ID Th-227/g organ
Th-227 in prostate (0.25 h, 1500 kBq/kg): 7.80% ID Th-227/g organ
Th-227 in salivary glands (0.25 h, 1500 kBq/kg): 2.81% ID Th-227/g organ
Th-227 in small intestine (0.25 h, 1500 kBq/kg): 1.14% ID Th-227/g organ
Th-227 in Blood (1 hr, 500 kBq/kg, study b2999): 0.37 % ID Th-227/g organ
Th-227 in Femur and tibia (1 hr, 500 kBq/kg, study b2999): 0.78 % ID Th-227/g organ
Th-227 in Kidneys (1 hr, 500 kBq/kg, study b2999): 150.81 % ID Th-227/g organ
Th-227 in Liver (1 hr, 500 kBq/kg, study b2999): 0.41 % ID Th-227/g organ
Th-227 in Salivary gland (1 hr, 500 kBq/kg, study b2999): 17.15 % ID Th-227/g organ
Th-227 in Spleen (1 hr, 500 kBq/kg, study b2999): 6.04 % ID Th-227/g organ
Th-227 in Tumor (1 hr, 500 kBq/kg, study b2999): 10.87 % ID Th-227/g organ
Th-227 in prostate (1 hr, 500 kBq/kg, study b2999): 9.05 % ID Th-227/g organ
Th-227 in Blood (1 hr, 1500 kBq/kg): 3.85% ID Th-227/g organ
Th-227 in Liver (1 hr, 1500 kBq/kg): 1.99% ID Th-227/g organ
Th-227 in Spleen (1 hr, 1500 kBq/kg): 9.16% ID Th-227/g organ
Th-227 in Tumor (1 hr, 1500 kBq/kg): 7.34% ID Th-227/g organ
Th-227 in bone (1 hr, 1500 kBq/kg): 5.16% ID Th-227/g organ
Th-227 in brain (1 hr, 1500 kBq/kg): 0.07% ID Th-227/g organ
Th-227 in kidney (1 hr, 1500 kBq/kg): 38.11% ID Th-227/g organ
Th-227 in large intestine (1 hr, 1500 kBq/kg): 0.57% ID Th-227/g organ
Th-227 in lung (1 hr, 1500 kBq/kg): 2.88% ID Th-227/g organ
Th-227 in muscle (1 hr, 1500 kBq/kg): 0.76% ID Th-227/g organ
Th-227 in prostate (1 hr, 1500 kBq/kg): 1.15% ID Th-227/g organ
Th-227 in salivary glands (1 hr, 1500 kBq/kg): 1.62% ID Th-227/g organ
Th-227 in small intestine (1 hr, 1500 kBq/kg): 0.84% ID Th-227/g organ
Th-227 in Blood (4 hr, 1500 kBq/kg): 1.05% ID Th-227/g organ
Th-227 in Liver (4 hr, 1500 kBq/kg): 1.32% ID Th-227/g organ
Th-227 in Spleen (4 hr, 1500 kBq/kg): 6.17% ID Th-227/g organ
Th-227 in Tumor (4 hr, 1500 kBq/kg): 13.09% ID Th-227/g organ
Th-227 in bone (4 hr, 1500 kBq/kg): 7.25% ID Th-227/g organ
Th-227 in brain (4 hr, 1500 kBq/kg): 0.04% ID Th-227/g organ
Th-227 in kidney (4 hr, 1500 kBq/kg): 32.13% ID Th-227/g organ
Th-227 in large intestine (4 hr, 1500 kBq/kg): 0.76% ID Th-227/g organ
Th-227 in lung (4 hr, 1500 kBq/kg): 1.55% ID Th-227/g organ
Th-227 in muscle (4 hr, 1500 kBq/kg): 0.37% ID Th-227/g organ
Th-227 in prostate (4 hr, 1500 kBq/kg): 1.06% ID Th-227/g organ
Th-227 in salivary glands (4 hr, 1500 kBq/kg): 0.72% ID Th-227/g organ
Th-227 in small intestine (4 hr, 1500 kBq/kg): 0.74% ID Th-227/g organ
Th-227 in Blood (6 hr, 500 kBq/kg, study b2999): 0.06 % ID Th-227/g organ
Th-227 in Femur and tibia (6 hr, 500 kBq/kg, study b2999): 0.31 % ID Th-227/g organ
Th-227 in Kidneys (6 hr, 500 kBq/kg, study b2999): 67.34 % ID Th-227/g organ
Th-227 in Liver (6 hr, 500 kBq/kg, study b2999): 0.19 % ID Th-227/g organ
Th-227 in Salivary gland (6 hr, 500 kBq/kg, study b2999): 2.84 % ID Th-227/g organ
Th-227 in Spleen (6 hr, 500 kBq/kg, study b2999): 0.73 % ID Th-227/g organ
